≈ marks a conversion by molar mass, not a printed value. Calls of active or inactive are those of the source. The rule behind the calls is not given here.
What was measured:
Assay type in all cases: functional
Staphylococcus aureus [1] = assay: Antimicrobial activity against Staphylococcus aureus ATCC 6538 at 400 ug after 18 hrs by disk diffusion method; details: ATCC 6538, 18 h, read-out: DIZ
Staphylococcus aureus [2] = assay: Antimicrobial activity against Methicillin susceptible Staphylococcus aureus 237/7 by twofold dilution technique
Micrococcus luteus [3] = assay: Antimicrobial activity against Micrococcus luteus ATCC 10240 at 400 ug after 18 hrs by disk diffusion method; details: ATCC 10240, 18 h, read-out: DIZ
Staphylococcus aureus [4] = assay: Antimicrobial activity against Methicillin susceptible Staphylococcus aureus 239/7 by twofold dilution technique
Staphylococcus aureus [5] = assay: Antimicrobial activity against Staphylococcus aureus ATCC 29213 at 400 ug after 18 hrs by disk diffusion method; details: ATCC 29213, 18 h, read-out: DIZ
Enterococcus hirae [6] = assay: Antimicrobial activity against Enterococcus hirae ATCC 10541 at 400 ug after 18 hrs by disk diffusion method; details: ATCC 10541, 18 h, read-out: DIZ
Staphylococcus aureus [7] = assay: Antimicrobial activity against methicillin-resistant Staphylococcus aureus 146/6 by twofold dilution technique
Staphylococcus aureus [8] = assay: Antimicrobial activity against Methicillin susceptible Staphylococcus aureus 208/7 by twofold dilution technique
Staphylococcus aureus [9] = assay: Antimicrobial activity against Staphylococcus aureus ATCC 29213 after 18 hrs by twofold dilution technique; details: ATCC 29213, 18 h
Staphylococcus aureus [10] = assay: Antimicrobial activity against Methicillin susceptible Staphylococcus aureus 207/7 by twofold dilution technique
Staphylococcus aureus [11] = assay: Antimicrobial activity against Staphylococcus aureus ATCC 25923 at 400 ug after 18 hrs by disk diffusion method; details: ATCC 25923, 18 h, read-out: DIZ
Staphylococcus aureus [12] = assay: Antimicrobial activity against Methicillin susceptible Staphylococcus aureus 206/7 by twofold dilution technique
Bacillus subtilis [13] = assay: Antimicrobial activity against Bacillus subtilis ATCC 6633 at 400 ug after 18 hrs by disk diffusion method; details: ATCC 6633, 18 h, read-out: DIZ
Micrococcus luteus [14] = assay: Antimicrobial activity against Micrococcus luteus ATCC 9341 after 18 hrs by twofold dilution technique; details: ATCC 9341, 18 h
Staphylococcus aureus [15] = assay: Antimicrobial activity against methicillin-resistant Staphylococcus aureus 218/7 by twofold dilution technique
Staphylococcus aureus [16] = assay: Antimicrobial activity against methicillin-resistant Staphylococcus aureus 140/6 by twofold dilution technique
[17] = system: Staphylococcus epidermidis; assay: Antimicrobial activity against Staphylococcus epidermidis ATCC 12228 by twofold dilution technique
Staphylococcus aureus [18] = assay: Antimicrobial activity against Methicillin susceptible Staphylococcus aureus 243/7 by twofold dilution technique
Staphylococcus aureus [19] = assay: Antimicrobial activity against Methicillin susceptible Staphylococcus aureus 213/7 by twofold dilution technique
Staphylococcus aureus [20] = assay: Antimicrobial activity against Staphylococcus aureus NCTC 4163 at 400 ug after 18 hrs by disk diffusion method; details: NCTC 4163, 18 h, read-out: DIZ
Enterococcus hirae [21] = assay: Antimicrobial activity against Enterococcus hirae ATCC 10541 after 18 hrs by twofold dilution technique; details: ATCC 10541, 18 h
Staphylococcus aureus [22] = assay: Antimicrobial activity against methicillin-resistant Staphylococcus aureus 136/6 by twofold dilution technique
Bacillus cereus [23] = assay: Antimicrobial activity against Bacillus cereus ATCC 11778 after 18 hrs by twofold dilution technique; details: ATCC 11778, 18 h
Staphylococcus aureus [24] = assay: Antimicrobial activity against methicillin-resistant Staphylococcus aureus 143/6 by twofold dilution technique
Bacillus cereus [25] = assay: Antimicrobial activity against Bacillus cereus ATCC 11778 at 400 ug after 18 hrs by disk diffusion method; details: ATCC 11778, 18 h, read-out: DIZ
[26] = system: Staphylococcus epidermidis; assay: Antimicrobial activity against Staphylococcus epidermidis ATCC 12228 at 400 ug after 18 hrs by disk diffusion method; details: ATCC 12228, 18 h, read-out: DIZ
Staphylococcus aureus [27] = assay: Antimicrobial activity against methicillin-resistant Staphylococcus aureus 236/7 by twofold dilution technique
Staphylococcus aureus [28] = assay: Antimicrobial activity against Staphylococcus aureus ATCC 25923 after 18 hrs by twofold dilution technique; details: ATCC 25923, 18 h
Staphylococcus aureus [29] = assay: Antimicrobial activity against methicillin-resistant Staphylococcus aureus 141/6 by twofold dilution technique
Staphylococcus aureus [30] = assay: Antimicrobial activity against Methicillin susceptible Staphylococcus aureus 238/7 by twofold dilution technique
Staphylococcus aureus [31] = assay: Antimicrobial activity against methicillin-resistant Staphylococcus aureus 144/6 by twofold dilution technique
Bacillus subtilis [32] = assay: Antimicrobial activity against Bacillus subtilis ATCC 6633 after 18 hrs by twofold dilution technique; details: ATCC 6633, 18 h
Micrococcus luteus [33] = assay: Antimicrobial activity against Micrococcus luteus ATCC 9341 at 400 ug after 18 hrs by disk diffusion method
Staphylococcus aureus [34] = assay: Antimicrobial activity against methicillin-resistant Staphylococcus aureus 200/7 by twofold dilution technique
Staphylococcus aureus [35] = assay: Antimicrobial activity against Staphylococcus aureus NCTC 4163 after 18 hrs by twofold dilution technique; details: NCTC 4163, 18 h
Staphylococcus aureus [36] = assay: Antimicrobial activity against Methicillin susceptible Staphylococcus aureus 242/7 by twofold dilution technique
Staphylococcus aureus [37] = assay: Antimicrobial activity against Staphylococcus aureus ATCC 6538 after 18 hrs by twofold dilution technique; details: ATCC 6538, 18 h
Micrococcus luteus [38] = assay: Antimicrobial activity against Micrococcus luteus ATCC 10240 by twofold dilution technique
Staphylococcus aureus [39] = assay: Antimicrobial activity against methicillin-resistant Staphylococcus aureus 217/7 by twofold dilution technique
Staphylococcus aureus [40] = assay: Antimicrobial activity against Methicillin susceptible Staphylococcus aureus 212/7 by twofold dilution technique

Row | Compound | zone of inhibition at 400 µg/disc (Staphylococcus aureus [1]) [mm] | MIC (Staphylococcus aureus [2]) [µg/mL] | zone of inhibition at 400 µg/disc (Micrococcus luteus [3]) [mm] | MIC (Staphylococcus aureus [4]) [µg/mL] | zone of inhibition at 400 µg/disc (Staphylococcus aureus [5]) [mm] | zone of inhibition at 400 µg/disc (Enterococcus hirae [6]) [mm] | MIC (Staphylococcus aureus [7]) [µg/mL] | MIC (Staphylococcus aureus [8]) [µg/mL] | MIC (Staphylococcus aureus [9]) [µg/mL] | MIC (Staphylococcus aureus [10]) [µg/mL] | zone of inhibition at 400 µg/disc (Staphylococcus aureus [11]) [mm] | MIC (Staphylococcus aureus [12]) [µg/mL] | zone of inhibition at 400 µg/disc (Bacillus subtilis [13]) [mm] | MIC (Micrococcus luteus [14]) [µg/mL] | MIC (Staphylococcus aureus [15]) [µg/mL] | MIC (Staphylococcus aureus [16]) [µg/mL] | MIC [17] [µg/mL] | MIC (Staphylococcus aureus [18]) [µg/mL] | MIC (Staphylococcus aureus [19]) [µg/mL] | zone of inhibition at 400 µg/disc (Staphylococcus aureus [20]) [mm] | other results
1 | Cc1cc2c(c(O)c1-c1c(C)cc3c(c1O)/C(=C/NCCc1cccs1)C(=O)C(O)=C3C(C)C)/C(=C/NCCc1cccs1)C(=O)C(O)=C2C(C)C | 17 | 50 (≈ 67.8 µM) | 19 | 50 (≈ 67.8 µM) | 18 | 14 | 50 (≈ 67.8 µM) | 50 (≈ 67.8 µM) | 25 (≈ 33.9 µM) | 50 (≈ 67.8 µM) | 18 | 25 (≈ 33.9 µM) | 16 | 50 (≈ 67.8 µM) | 50 (≈ 67.8 µM) | 50 (≈ 67.8 µM) | 100 (≈ 136 µM) | 50 (≈ 67.8 µM) | 25 (≈ 33.9 µM) | 18 | MIC (Enterococcus hirae [21]): 50 µg/mL (≈ 67.8 µM); MIC (Staphylococcus aureus [22]): 50 µg/mL (≈ 67.8 µM); MIC (Bacillus cereus [23]): 50 µg/mL (≈ 67.8 µM); MIC (Staphylococcus aureus [24]): 50 µg/mL (≈ 67.8 µM); zone of inhibition at 400 µg/disc (Bacillus cereus [25]): 15 mm; zone of inhibition at 400 µg/disc [26]: 21 mm; MIC (Staphylococcus aureus [27]): 50 µg/mL (≈ 67.8 µM); MIC (Staphylococcus aureus [28]): 25 µg/mL (≈ 33.9 µM); MIC (Staphylococcus aureus [29]): 50 µg/mL (≈ 67.8 µM); MIC (Staphylococcus aureus [30]): 50 µg/mL (≈ 67.8 µM); MIC (Staphylococcus aureus [31]): 50 µg/mL (≈ 67.8 µM); MIC (Bacillus subtilis [32]): 100 µg/mL (≈ 136 µM); zone of inhibition at 400 µg/disc (Micrococcus luteus [33]; ATCC 9341, 18 h, read-out: DIZ): 12 mm; MIC (Staphylococcus aureus [34]): 50 µg/mL (≈ 67.8 µM); MIC (Staphylococcus aureus [35]): 50 µg/mL (≈ 67.8 µM); MIC (Staphylococcus aureus [36]): 12.5 µg/mL (≈ 17 µM); MIC (Staphylococcus aureus [37]): 25 µg/mL (≈ 33.9 µM); MIC (Micrococcus luteus [38]): 50 µg/mL (≈ 67.8 µM); MIC (Staphylococcus aureus [39]): 100 µg/mL (≈ 136 µM); MIC (Staphylococcus aureus [40]): 25 µg/mL (≈ 33.9 µM)
2 | Cc1cc2c(c(O)c1-c1c(C)cc3c(c1O)/C(=C/NCCC(=O)N[C@@H](Cc1c[nH]cn1)C(=O)O)C(=O)C(O)=C3C(C)C)/C(=C/NCCC(=O)N[C@@H](Cc1c[nH]cn1)C(=O)O)C(=O)C(O)=C2C(C)C | 15 | 50 (≈ 53.5 µM) | 16 | 100 (≈ 107 µM) | 13 | 12 | 50 (≈ 53.5 µM) | 100 (≈ 107 µM) | 25 (≈ 26.7 µM) | 100 (≈ 107 µM) | 15 | 50 (≈ 53.5 µM) | 13 | 50 (≈ 53.5 µM) | 100 (≈ 107 µM) | 100 (≈ 107 µM) | 200 (≈ 214 µM) | 100 (≈ 107 µM) | 100 (≈ 107 µM) | 15 | MIC (Enterococcus hirae [21]): 50 µg/mL (≈ 53.5 µM); MIC (Staphylococcus aureus [22]): 25 µg/mL (≈ 26.7 µM); MIC (Bacillus cereus [23]): 50 µg/mL (≈ 53.5 µM); MIC (Staphylococcus aureus [24]): 100 µg/mL (≈ 107 µM); zone of inhibition at 400 µg/disc (Bacillus cereus [25]): 14 mm; zone of inhibition at 400 µg/disc [26]: 14 mm; MIC (Staphylococcus aureus [27]): 50 µg/mL (≈ 53.5 µM); MIC (Staphylococcus aureus [28]): 50 µg/mL (≈ 53.5 µM); MIC (Staphylococcus aureus [29]): 100 µg/mL (≈ 107 µM); MIC (Staphylococcus aureus [30]): 50 µg/mL (≈ 53.5 µM); MIC (Staphylococcus aureus [31]): 100 µg/mL (≈ 107 µM); MIC (Bacillus subtilis [32]): 200 µg/mL (≈ 214 µM); diameter of the inhibition zone (DIZ) (Micrococcus luteus [33]): inactive; MIC (Staphylococcus aureus [34]): 100 µg/mL (≈ 107 µM); MIC (Staphylococcus aureus [35]): 50 µg/mL (≈ 53.5 µM); MIC (Staphylococcus aureus [36]): 25 µg/mL (≈ 26.7 µM); MIC (Staphylococcus aureus [37]): 25 µg/mL (≈ 26.7 µM); MIC (Micrococcus luteus [38]): 50 µg/mL (≈ 53.5 µM); MIC (Staphylococcus aureus [39]): 100 µg/mL (≈ 107 µM); MIC (Staphylococcus aureus [40]): 100 µg/mL (≈ 107 µM)
3 | CCCCOCCOCCN/C=C1\C(=O)C(O)=C(C(C)C)c2cc(C)c(-c3c(C)cc4c(c3O)/C(=C/NCCOCCOCCCC)C(=O)C(O)=C4C(C)C)c(O)c21 | 14 | 100 (≈ 124 µM) | 12 | 100 (≈ 124 µM) | 13 | 12 | 100 (≈ 124 µM) | 100 (≈ 124 µM) | 50 (≈ 62.1 µM) | 100 (≈ 124 µM) | 14 | 50 (≈ 62.1 µM) | 12 | 100 (≈ 124 µM) | 100 (≈ 124 µM) | 100 (≈ 124 µM) | > 400 | 100 (≈ 124 µM) | 100 (≈ 124 µM) | 14 | MIC (Enterococcus hirae [21]): 100 µg/mL (≈ 124 µM); MIC (Staphylococcus aureus [22]): 50 µg/mL (≈ 62.1 µM); MIC (Bacillus cereus [23]): 100 µg/mL (≈ 124 µM); MIC (Staphylococcus aureus [24]): 100 µg/mL (≈ 124 µM); zone of inhibition at 400 µg/disc (Bacillus cereus [25]): 12 mm; zone of inhibition at 400 µg/disc [26]: 12 mm; MIC (Staphylococcus aureus [27]): 50 µg/mL (≈ 62.1 µM); MIC (Staphylococcus aureus [28]): 100 µg/mL (≈ 124 µM); MIC (Staphylococcus aureus [29]): 200 µg/mL (≈ 248 µM); MIC (Staphylococcus aureus [30]): 100 µg/mL (≈ 124 µM); MIC (Staphylococcus aureus [31]): 200 µg/mL (≈ 248 µM); MIC (Bacillus subtilis [32]): 200 µg/mL (≈ 248 µM); diameter of the inhibition zone (DIZ) (Micrococcus luteus [33]): inactive; MIC (Staphylococcus aureus [34]): 100 µg/mL (≈ 124 µM); MIC (Staphylococcus aureus [35]): 100 µg/mL (≈ 124 µM); MIC (Staphylococcus aureus [36]): 50 µg/mL (≈ 62.1 µM); MIC (Staphylococcus aureus [37]): 50 µg/mL (≈ 62.1 µM); MIC (Micrococcus luteus [38]): 200 µg/mL (≈ 248 µM); MIC (Staphylococcus aureus [39]): 200 µg/mL (≈ 248 µM); MIC (Staphylococcus aureus [40]): 200 µg/mL (≈ 248 µM)
